Patent US9809574B2, “Isoindoline or isoquinoline compounds, a process for their preparation and pharmaceutical compositions containing them” (LES LABORATOIRES SERVIER, priority 2013, dated 2017)

Key:
Bcl-2 protein = Bcl-2 protein (histag-Bcl-2, UniProtKB P10415) (Homo sapiens (Human), UniProt P10415); experiment: Inhibition of Bcl-2 by the fluorescence polarisation technique; format: binding; details: fluorescence polarisation test; incubation for 2 hours; read-out: IC50 (nM) Bcl-2 FP
Description: For partial inhibitors, the percentage fluorescence polarisation inhibition for a given concentration of the test compound is indicated.

[1] = system: RS4; 11 leukaemia cell line; experiment: In vitro cytotoxicity, Microculture Tetrazolium Assay (MTT); format: cell-based; details: Homo sapiens, 11 cells exposed for 48 hours
Procedure: The cytotoxicity studies were carried out on the RS4; 11 leukaemia cell line and on H146 small Cell Lung Carcinoma cell line. The cells are distributed onto microplates and exposed to the test compounds for 48 hours. The cell viability is then quantified by a colorimetric assay, the Microculture Tetrazolium Assay (Cancer Res., 1987, 47, 939-942).

Sequence of Bcl-2 protein (P10415 whole entry): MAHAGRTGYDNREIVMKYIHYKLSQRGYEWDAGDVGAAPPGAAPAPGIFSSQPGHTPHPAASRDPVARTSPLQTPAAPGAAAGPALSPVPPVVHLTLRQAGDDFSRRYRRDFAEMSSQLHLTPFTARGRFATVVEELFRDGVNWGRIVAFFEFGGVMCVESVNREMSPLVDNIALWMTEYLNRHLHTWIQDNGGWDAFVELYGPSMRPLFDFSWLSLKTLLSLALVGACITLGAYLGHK

| Compound | IC50 (Bcl-2 protein) | IC50 [1] |
| --- | --- | --- |
| Cc1c(C(=O)N(C)c2ccc(O)cc2)cc(-c2cc3c(cc2C(=O)N2Cc4ccccc4C[C@H]2C)CN(C(=O)NC2CCCCC2)CC3)n1C [Example 792, N-Cyclohexyl-6-{4-[(4-hydroxyphenyl)(methyl)carbamoyl]-1,5-dimethyl-1H-pyrrol-2-yl}-7-[(3R)-3-methyl-1,2,3,4-tetrahydroisoquinoline-2-carbonyl]-1,2,3,4-tetrahydroisoquinoline-2-carboxamide] | 4.6 nM | 21 nM |
| Cc1c(C(=O)N(C)c2ccccc2)cc(-c2cc3c(cc2C(=O)N2Cc4ccccc4C[C@H]2CN2CCOCC2)CN(C(=O)Oc2ccccc2)CC3)n1C [Example 115, Phenyl 6-{1,5-dimethyl-4-[methyl(phenyl)carbamoyl]-1H-pyrrol-2-yl}-7-[(3S)-3-(morpholin-4-ylmethyl)-1,2,3,4-tetrahydroisoquinoline-2-carbonyl]-1,2,3,4-tetrahydroisoquinoline-2-carboxylate] | 3.4 nM | 24 nM |
| Cc1ccc(OC(=O)N2CCc3cc(-c4cc(C(=O)N(C)c5ccc(O)cc5)c(C)n4C)c(C(=O)N4Cc5ccccc5C[C@H]4CN4CCOCC4)cc3C2)cc1 [Example 139, 4-Methylphenyl 6-{4-[(4-hydroxyphenyl)(methyl)carbamoyl]-1,5-dimethyl-1H-pyrrol-2-yl}-7-[(3S)-3-(morpholin-4-ylmethyl)-1,2,3,4-tetrahydroisoquinoline-2-carbonyl]-1,2,3,4-tetrahydroisoquinoline-2-carboxylate] | 5.1 nM | 0.84 nM |
| C[C@@H]1Cc2ccccc2CN1C(=O)c1cc2c(cc1-c1cc(C(=O)N(C)c3ccc(O)cc3)c3n1CCCC3)CN(C(=O)CCC1CCCCC1)C2 [Example 32, 3-[2-(3-Cyclohexylpropanoyl)-6-[(3R)-3-methyl-1,2,3,4-tetrahydroisoquinoline-2-carbonyl]-2,3-dihydro-1H-isoindol-5-yl]-N-(4-hydroxyphenyl)-N-methyl-5,6,7,8-tetrahydroindolizine-1-carboxamide] | 47 nM | 141 nM |
| Cc1c(C(=O)N(C)c2ccc(O)cc2)cc(-c2cc3c(cc2C(=O)N2Cc4ccccc4C[C@H]2CCCN2CCOCC2)CN(C(=O)Oc2ccccc2)CC3)n1C [Example 808, Phenyl 6-{4-[(4-hydroxyphenyl)(methyl)carbamoyl]-1,5-dimethyl-1H-pyrrol-2-yl}-7-[(3R)-3-[3-(morpholin-4-yl)propyl]-1,2,3,4-tetrahydroisoquinoline-2-carbonyl]-1,2,3,4-tetrahydroisoquinoline-2-carboxylate] | 2.7 nM | 1.6 nM |
| Cc1c(C(=O)N(C)c2ccc(O)cc2)cc(-c2cc3c(cc2C(=O)N2Cc4ccccc4C[C@H]2CN2CCOCC2)CN(C(=O)/C=C/c2ccc(Cl)c(Cl)c2)CC3)n1C [Example 137, 5-{2-[(2E)-3-(3,4-dichlorophenyl)prop-2-enoyl]-7-[(3S)-3-(morpholin-4-ylmethyl)-1,2,3,4-tetrahydroisoquinoline-2-carbonyl]-1,2,3,4-tetrahydroisoquinolin-6-yl}-N-(4-hydroxyphenyl)-N,1,2-trimethyl-1H-pyrrole-3-carboxamide] | 9.4 nM | 47 nM |
| Cc1c(C(=O)N(C)c2ccccc2)cc(-c2cc3c(cc2C(=O)N2Cc4ccccc4C[C@H]2CN2CCN(C)CC2)CN(C(=O)Oc2cccc(C(=O)O)c2)CC3)n1C [Example 735, 3-(6-{1,5-Dimethyl-4-[methyl(phenyl)carbamoyl]-1H-pyrrol-2-yl}-7-[(3S)-3-[(4-methylpiperazin-1-yl)methyl]-1,2,3,4-tetrahydroisoquinoline-2-carbonyl]-1,2,3,4-tetrahydroisoquinoline-2-carbonyloxy)benzoic acid] | 12 nM | > 150 nM |
| Cc1c(C(=O)N(C)c2ccccc2)cc(-c2cc3c(cc2C(=O)N2Cc4ccccc4C[C@H]2C)CN(C(=O)Cc2ccc(C#N)cc2)CC3)n1C [Example 150, 5-{2-[2-(4-Cyanophenyl)acetyl]-7-[(3R)-3-methyl-1,2,3,4-tetrahydroisoquinoline-2-carbonyl]-1,2,3,4-tetrahydroisoquinolin-6-yl}-N,1,2-trimethyl-N-phenyl-1H-pyrrole-3-carboxamide] | 4.3 nM | 16 nM |
| Cc1c(C(=O)N(C)c2ccccc2)cc(-c2cc3c(cc2C(=O)N2Cc4ccccc4C[C@H]2C)CN(C(=O)Oc2cccc(CCC(=O)N(C)C)c2)CC3)n1C [Example 787, 3-[2-(Dimethylcarbamoyl)ethyl]phenyl 6-{1,5-dimethyl-4-[methyl(phenyl)carbamoyl]-1H-pyrrol-2-yl}-7-[(3R)-3-methyl-1,2,3,4-tetrahydroisoquinoline-2-carbonyl]-1,2,3,4-tetrahydroisoquinoline-2-carboxylate] | 5 nM | 6.2 nM |
| Cc1c(C(=O)N(C)c2ccc(O)cc2)cc(-c2cc3c(cc2C(=O)N2Cc4ccccc4C[C@H]2CCN2CCOCC2)CN(C(=O)OC2CCCCC2)CC3)n1C [Example 807, Cyclohexyl 6-{4-[(4-hydroxyphenyl)(methyl)carbamoyl]-1,5-dimethyl-1H-pyrrol-2-yl}-7-[(3S)-3-[2-(morpholin-4-yl)ethyl]-1,2,3,4-tetrahydroisoquinoline-2-carbonyl]-1,2,3,4-tetrahydroisoquinoline-2-carboxylate] | 3.9 nM | 26 nM |
| C[C@@H]1Cc2ccccc2CN1C(=O)c1cc2c(cc1-c1cc(C(=O)N(C)c3ccc(O)cc3)c3n1CCCC3)CN(CCC1CCCCC1)C2 [Example 29, 3-[2-(2-Cyclohexylethyl)-6-[(3R)-3-methyl-1,2,3,4-tetrahydroisoquinoline-2-carbonyl]-2,3-dihydro-1H-isoindol-5-yl]-N-(4-hydroxyphenyl)-N-methyl-5,6,7,8-tetrahydroindolizine-1-carboxamide] | 28 nM | > 150 nM |
| Cc1c(C(=O)N(C)c2ccc(O)cc2)cc(-c2cc3c(cc2C(=O)N2Cc4ccccc4C[C@H]2C)CN(C(=O)Cc2ccc4c(c2)OCO4)C3)n1C [Example 172, 5-{2-[2-(2H-1,3-Benzodioxol-5-yl)acetyl]-6-[(3R)-3-methyl-1,2,3,4-tetrahydroisoquinoline-2-carbonyl]-2,3-dihydro-1H-isoindol-5-yl}-N-(4-hydroxyphenyl)-N,1,2-trimethyl-1H-pyrrole-3-carboxamide] | 3.4 nM | 28 nM |
| C[C@@H]1Cc2ccccc2CN1C(=O)c1cc2c(cc1-c1cc(C(=O)N(C)c3ccc(O)cc3)c3n1CCCC3)CN(C(=O)CSc1ccccc1)C2 [Example 171, N-(4-Hydroxyphenyl)-N-methyl-3-{6-[(3R)-3-methyl-1,2,3,4-tetrahydroisoquinoline-2-carbonyl]-2-[2-(phenylsulfanyl)acetyl]-2,3-dihydro-1H-isoindol-5-yl}-5,6,7,8-tetrahydroindolizine-1-carboxamide] | 5.1 nM | 63 nM |
| CC(Cc1ccc(Cl)cc1)C(=O)N1Cc2cc(C(=O)N3Cc4ccccc4C[C@H]3C)c(-c3cc(C(=O)N(C)c4ccc(O)cc4)c4n3CCCC4)cc2C1 (stereo partly drawn) [Example 24, 3-(2-{2-[(4-Chlorophenyl)methyl]propanoyl}-6-[(3R)-3-methyl-1,2,3,4-tetrahydroisoquinoline-2-carbonyl]-2,3-dihydro-1H-isoindol-5-yl)-N-(4-hydroxyphenyl)-N-methyl-5,6,7,8-tetrahydroindolizine-1-carboxamide] | 19 nM | > 150 nM |
| COc1cccc(CCC(=O)N2CCc3cc(-c4cc(C(=O)N(C)c5ccc(O)cc5)c(C)n4C)c(C(=O)N4Cc5ccccc5C[C@H]4CN4CCOCC4)cc3C2)c1 [Example 135, N-(4-Hydroxyphenyl)-5-{2-[3-(3-methoxyphenyl)propanoyl]-7-[(3S)-3-(morpholin-4-ylmethyl)-1,2,3,4-tetrahydroisoquinoline-2-carbonyl]-1,2,3,4-tetrahydroisoquinolin-6-yl}-N,1,2-trimethyl-1H-pyrrole-3-carboxamide] | 8.4 nM | 99 nM |
| C[C@@H]1Cc2ccccc2CN1C(=O)c1cc2c(cc1-c1cc(C(=O)N(C)c3ccc(O)cc3)c3n1CCCC3)CN(C(=O)NCc1ccccc1)C2 [Example 61, N-Benzyl-5-{1-[(4-hydroxyphenyl)(methyl)carbamoyl]-5,6,7,8-tetrahydroindolizin-3-yl}-6-[(3R)-3-methyl-1,2,3,4-tetrahydroisoquinoline-2-carbonyl]-2,3-dihydro-1H-isoindole-2-carboxamide] | 4.4 nM | 85 nM |
| CCN(C(=O)c1cc(-c2cc3c(cc2C(=O)N2Cc4ccccc4C[C@H]2CN2CCOCC2)CN(C(=O)Cc2ccccc2)CC3)n(C)c1C)c1ccc(O)cc1 [Example 780, N-Ethyl-N-(4-hydroxyphenyl)-1,2-dimethyl-5-{7-[(3S)-3-(morpholin-4-ylmethyl)-1,2,3,4-tetrahydroisoquinoline-2-carbonyl]-2-(2-phenylacetyl)-1,2,3,4-tetrahydroisoquinolin-6-yl}-1H-pyrrole-3-carboxamide] | 3.5 nM | 17 nM |
| CN(C(=O)c1cc(-c2cc3c(cc2C(=O)N2Cc4ccccc4C[C@H]2CN2CCOCC2)CN(C(=O)Oc2ccc(OC(F)(F)F)cc2)CC3)n2c1CCCC2)c1ccc(O)cc1 [Example 125, 4-(Trifluoromethoxy)phenyl 6-{1-[(4-hydroxyphenyl)(methyl)carbamoyl]-5,6,7,8-tetrahydroindolizin-3-yl}-7-[(3S)-3-(morpholin-4-ylmethyl)-1,2,3,4-tetrahydroisoquinoline-2-carbonyl]-1,2,3,4-tetrahydroisoquinoline-2-carboxylate] | 8.7 nM | 49 nM |
